Patent US20150094220A1, “METHOD TO PREDICT THE SAFETY OF THE TREATMENT WITH A NICOTINIC CHOLINERGIC RECEPTOR AGONIST” (GENETRACER BIOTECH S.L, priority 2012, published 2015)

Assays:
[1] = Observational pharmacogenetic study: dose reduction due to adverse effects in smokers treated with varenicline; type: in vivo, human; details: for Linear OR, dose reduction due to adverse effects: linear model
Experimental: (§1) In a study conducted on 807 patients from the Tobacco Addiction Units of 22 hospitals and health centers in Spain and Portugal, more than 300 SNPs relating to the relevant pathways with respect to the efficacy of the 3 first-line pharmacological tobacco cessation treatments were assessed: nicotine replacement therapy (NRT), bupropion and varenicline. The safety was assessed after three months of abstinence from tobacco consumption in relation to the presence of adverse effects which determined the reduction or withdrawal of the initially applied treatment.
(§2) The analysis process was carried out after applying the usual checks for correcting data entry errors. The status of the subjects was first characterized either as “cases” or as “controls”, depending on the safety results obtained after 3 months of follow-up after the establishment of the chosen tobacco cessation treatment. Those individuals in whom (a) it was necessary to reduce the dose of the chosen treatment due to the presence of treatment-related adverse effects, or (b) it was necessary to suspend or change the treatment due to intolerance to same according to the assessment of his/her doctor, were considered as “cases”. The different statistical analysis models thus provided information about the safety associated with the presence of a certain genetic pattern.
(§3) To assess the possibility of confounding biases as a result of the mixed population analysis, and also as a control for genotyping errors, the Hardy-Weinberg disequilibrium test was performed both in the “cases” and in the corresponding “controls”. The result of this test was assessed before analyzing the results obtained in the various logistic regression models which were used to assess the association between the specific SNPs and the safety results of the prescribed treatments. The following penetrance models were used in the logistic regression models: dominant, recessive, additive, over-dominant and log-additive. The statistical analyses were performed both with the allelic frequency and with the genotypic frequency, the latter being those which provide the most information about the associations to be replicated. All the results were presented as odds-ratios (OR) with the corresponding 95% confidence intervals and statistical significance value thereof.
(§4) Finally, the discriminating power of the different genetic indicators (SNPs) analyzed with respect to the safety results was assessed by means of […] and area under the curve analysis. The final purpose of this analysis strategy was to enable estimating the probability of adverse effects that a subject with a certain genotypic profile who starts a tobacco cessation treatment (particularly with varenicline) may have and adjusting and monitoring his/her treatment based on this information.
(§5) For the purpose of determining the pharmacogenetic profile associated with the safety of a pharmacological smoking cessation treatment, the results obtained in terms of abstinence from tobacco consumption after 3 months were evaluated in relation to the presence of adverse effects which determined the reduction or withdrawal of the initially applied treatment. The subjects were divided into three groups which were treated with NRT, bupropion or varenicline.
(§6) It is an observational study with the intervention of 21 Tobacco Addiction Units from the public health services in Spain and Portugal. A total of 807 subjects were invited to participate in the study, 798 of whom provided their sociodemographic and clinical data taking a test with 144 items. They also provided a biological sample for subsequent genotyping. 483 individuals were treated with varenicline. The information of both the phenotypic and genotypic variables was collected for 479 patients treated with varenicline before establishing the pharmacological treatment.
(§7) The clinical results were linked to the safety of the pharmacological treatments. […]

[2] = Observational pharmacogenetic study: treatment suspension due to adverse effects in smokers treated with varenicline; type: in vivo, human
Experimental: as §1, §2, §3, §4, §5, §6, §7

[3] = target: α4β2 neuronal nicotinic acetylcholine receptor subtype (Homo sapiens, UniProt P17787+P43681); details: selective partial agonist; cited from earlier work
[4] = 1 mg twice a day, 3-month treatment studies; cited from earlier work
[5] = oral; cited from earlier work

α4β2 neuronal nicotinic acetylcholine receptor subtype, sequence (P43681 29-627 limits assumed): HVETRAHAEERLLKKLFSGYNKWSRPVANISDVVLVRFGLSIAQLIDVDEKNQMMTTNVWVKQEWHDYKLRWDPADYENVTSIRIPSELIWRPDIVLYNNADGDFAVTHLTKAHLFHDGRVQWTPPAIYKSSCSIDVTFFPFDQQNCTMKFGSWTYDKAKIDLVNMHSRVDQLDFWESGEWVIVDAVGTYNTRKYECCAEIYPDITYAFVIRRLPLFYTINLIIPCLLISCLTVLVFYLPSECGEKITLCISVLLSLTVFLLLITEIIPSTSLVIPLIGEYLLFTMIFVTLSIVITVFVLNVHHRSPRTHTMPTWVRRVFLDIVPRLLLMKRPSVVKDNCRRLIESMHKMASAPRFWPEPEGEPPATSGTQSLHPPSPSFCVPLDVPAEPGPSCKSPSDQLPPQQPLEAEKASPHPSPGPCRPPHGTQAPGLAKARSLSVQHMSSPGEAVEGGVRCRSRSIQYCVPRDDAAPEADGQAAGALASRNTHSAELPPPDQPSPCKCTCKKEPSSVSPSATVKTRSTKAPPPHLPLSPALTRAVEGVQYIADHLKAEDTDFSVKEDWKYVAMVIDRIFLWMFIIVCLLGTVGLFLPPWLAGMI
α4β2 neuronal nicotinic acetylcholine receptor subtype, sequence (P17787 26-502): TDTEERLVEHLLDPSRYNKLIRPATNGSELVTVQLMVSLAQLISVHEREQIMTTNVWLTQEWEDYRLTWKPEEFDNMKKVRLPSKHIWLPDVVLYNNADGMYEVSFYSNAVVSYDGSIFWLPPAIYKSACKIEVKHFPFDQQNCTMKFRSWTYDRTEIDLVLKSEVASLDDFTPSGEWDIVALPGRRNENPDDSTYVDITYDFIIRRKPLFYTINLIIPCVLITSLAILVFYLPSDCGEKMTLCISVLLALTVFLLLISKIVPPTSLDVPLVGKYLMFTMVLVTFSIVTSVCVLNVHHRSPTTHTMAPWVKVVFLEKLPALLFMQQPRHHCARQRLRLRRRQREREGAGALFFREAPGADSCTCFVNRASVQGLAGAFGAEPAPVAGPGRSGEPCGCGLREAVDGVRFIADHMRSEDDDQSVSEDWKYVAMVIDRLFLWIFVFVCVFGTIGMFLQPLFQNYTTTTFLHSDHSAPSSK

## c1cnc2cc3c(cc2n1)C1CNCC3C1 [varenicline, 7,8,9,10-tetrahydro-6,10-methane-6H-pyrazino[2,3-h][3]benzazepine]
[1]; rs763132 (ARHGAP18) alleles T, G
  OR (95% CI), alleles, dose reduction due to adverse effects: 0.43
[1]; rs763132 (ARHGAP18) genotype G/G
  OR, dose reduction due to adverse effects: 0.13
[1]; rs763132 (ARHGAP18) genotype G/T
  OR, dose reduction due to adverse effects: 0.49
[1]; rs763132 (ARHGAP18) genotype T/T (reference)
  OR, dose reduction due to adverse effects: 1.00
[1]; rs763132 (ARHGAP18) genotype
  Linear OR, dose reduction due to adverse effects: 0.44
[1]; rs1183035 (MAOB) alleles T, C
  OR (95% CI), alleles, dose reduction due to adverse effects: 0.28
[1]; rs1183035 (MAOB) genotype C/C
  OR, dose reduction due to adverse effects: 0.00
[1]; rs1183035 (MAOB) genotype C/T
  OR, dose reduction due to adverse effects: 0.83
[1]; rs1183035 (MAOB) genotype T/T (reference)
  OR, dose reduction due to adverse effects: 1.00
[1]; rs1183035 (MAOB) genotype
  Linear OR, dose reduction due to adverse effects: 0.42
[1]; rs4474069 (RAPGEF1) alleles C, T
  OR (95% CI), alleles, dose reduction due to adverse effects: 1.82
[1]; rs4474069 (RAPGEF1) genotype C/C (reference)
  OR, dose reduction due to adverse effects: 1.00
[1]; rs4474069 (RAPGEF1) genotype C/T
  OR, dose reduction due to adverse effects: 2.68
[1]; rs4474069 (RAPGEF1) genotype T/T
  OR, dose reduction due to adverse effects: 1.33
[1]; rs4474069 (RAPGEF1) genotype
  Linear OR, dose reduction due to adverse effects: 1.87
[2]; human, in vivo, 3 months
  Linear OR, treatment suspension due to adverse effects: 2.43
  OR (95% CI), alleles, treatment suspension due to adverse effects: 2.41
[2]; rs7146 (C19orf6) alleles C, T
  OR (95% CI), alleles, treatment suspension due to adverse effects: 1.83
[2]; rs7146 (C19orf6) genotype C/C (reference)
  OR, treatment suspension due to adverse effects: 1.00
[2]; rs7146 (C19orf6) genotype C/T
  OR, treatment suspension due to adverse effects: 1.61
[2]; rs7146 (C19orf6) genotype T/T
  OR, treatment suspension due to adverse effects: 4.05
[2]; rs7146 (C19orf6) genotype, linear model
  Linear OR, treatment suspension due to adverse effects: 1.93
[2]; rs477292 (OPRM1) alleles G, A
  OR (95% CI), alleles, treatment suspension due to adverse effects: 1.91
[2]; rs477292 (OPRM1) genotype A/A
  OR, treatment suspension due to adverse effects: 3.54
[2]; rs477292 (OPRM1) genotype A/G
  OR, treatment suspension due to adverse effects: 2.13
[2]; rs477292 (OPRM1) genotype G/G (reference)
  OR, treatment suspension due to adverse effects: 1.00
[2]; rs477292 (OPRM1) genotype, linear model
  Linear OR, treatment suspension due to adverse effects: 1.99
[2]; rs495491 (OPRM1) alleles T, C
  OR (95% CI), alleles, treatment suspension due to adverse effects: 2.08
[2]; rs495491 (OPRM1) genotype C/C
  OR, treatment suspension due to adverse effects: 3.80
[2]; rs495491 (OPRM1) genotype C/T
  OR, treatment suspension due to adverse effects: 2.77
[2]; rs495491 (OPRM1) genotype T/T (reference)
  OR, treatment suspension due to adverse effects: 1.00
[2]; rs495491 (OPRM1) genotype, linear model
  Linear OR, treatment suspension due to adverse effects: 2.19
[2]; rs3778151 (OPRM1) alleles T, C
  OR (95% CI), alleles, treatment suspension due to adverse effects: 2.40
[2]; rs3778151 (OPRM1) genotype C/C
  OR, treatment suspension due to adverse effects: 8.48
[2]; rs3778151 (OPRM1) genotype C/T
  OR, treatment suspension due to adverse effects: 2.26
[2]; rs3778151 (OPRM1) genotype T/T (reference)
  OR, treatment suspension due to adverse effects: 1.00
[2]; rs3778151 (OPRM1) genotype, linear model
  Linear OR, treatment suspension due to adverse effects: 2.55
[2]; rs7930792 (UBASH3B) alleles C, G
  OR (95% CI), alleles, treatment suspension due to adverse effects: 0.52
[2]; rs7930792 (UBASH3B) genotype C/C (reference)
  OR, treatment suspension due to adverse effects: 1.00
[2]; rs7930792 (UBASH3B) genotype C/G
  OR, treatment suspension due to adverse effects: 0.58
[2]; rs7930792 (UBASH3B) genotype G/G
  OR, treatment suspension due to adverse effects: 0.21
[2]; rs7930792 (UBASH3B) genotype, linear model
  Linear OR, treatment suspension due to adverse effects: 0.52
[2]; rs9479757 (OPRM1) alleles G, A
  OR (95% CI), alleles, treatment suspension due to adverse effects: 3.27
[2]; rs9479757 (OPRM1) genotype A/A
  OR, treatment suspension due to adverse effects: 12.30
[2]; rs9479757 (OPRM1) genotype A/G
  OR, treatment suspension due to adverse effects: 3.46
[2]; rs9479757 (OPRM1) genotype G/G (reference)
  OR, treatment suspension due to adverse effects: 1.00
[2]; rs9479757 (OPRM1) genotype, linear model
  Linear OR, treatment suspension due to adverse effects: 3.47
[2]; rs12423809 (C12orf36) alleles A, C
  OR (95% CI), alleles, treatment suspension due to adverse effects: 1.91
[2]; rs12423809 (C12orf36) genotype A/A (reference)
  OR, treatment suspension due to adverse effects: 1.00
[2]; rs12423809 (C12orf36) genotype A/C
  OR, treatment suspension due to adverse effects: 1.59
[2]; rs12423809 (C12orf36) genotype C/C
  OR, treatment suspension due to adverse effects: 3.53
[2]; rs12423809 (C12orf36) genotype, linear model
  Linear OR, treatment suspension due to adverse effects: 1.87
[3]
  affinity: high affinity
[4]
  treatment withdrawal rate due to adverse effects: 12%
  withdrawal rate due to headache: 0.6%
  withdrawal rate due to insomnia: 1.2%
  withdrawal rate due to nausea: 3%
  withdrawal rate due to sleep alterations: 0.3%
[5]
  absorption: complete
  systemic availability: high
  time of maximum plasma concentrations after intake: 3 to 4 h
